From paper PMC12567082, “Silver(I) Complexes Bearing S-Alkyl Thiosalicylic Acid Derivatives: DNA/BSA Binding and Antitumor Activity In Vitro and In Vivo” (Pharmaceutics, 2025)

What was measured:
human lung cancer (A549) = experiment: MTT assay A549; assay type: cell-based
Description: (§1) Mouse breast cancer (4T1), human breast cancer (MDA-MB-468), mouse colon cancer (CT26), human colon cancer (HCT-116), mouse lung cancer (LLC1), human lung cancer (A549), mouse mesenchymal stem cells (mMSC), and human fibroblast cell lines (MRC-5) were used in this study and were consistently cultured in complete Dulbecco’s Modified Eagle Medium (DMEM) (Sigma-Aldrich, St. Louis, MO, USA) in incubator (5% CO2) under standard conditions. Complete DMEM was Dulbecco’s Modified Eagle Medium supplemented with 10% fetal bovine serum (FBS), 1 mmol/L penicillin–streptomycin, 1 mmol/L mixed nonessential amino acids, and 2 mmol/L L-glutamine (Sigma-Aldrich, St. Louis, MO, USA). All cancer cell lines and MRC-5 cell line were obtained from American Type Culture Collection (ATCC, Manassas, VA, USA), but mMSC was manufactured by Gibco (Middlesex County, MA, USA).
(§2) In 96-well microplates, we seeded cancer and non-cancer cells, more exactly 5 × 10^3 cells per well in 100 μL of complete DMEM (Sigma-Aldrich, St. Louis, MO, USA). […] Tested concentration range for all metal-based substances was 3.9–500 μM. After incubation with MTT solution (5 mg/mL; pH 7.2) for 4 h, optical density was determined using Zenyth 3100 microplate multimode detector (Salzburg, Austria). All experiments were performed three times, each in triplicate, and the IC50 values as well as selectivity indexes (IC50 for mMSC or MRC-5/IC50 for mouse or human cancer cells) were calculated.

4T1 cells [1] = experiment: Cell cycle distribution; assay type: cell-based, mouse; settings: 0.5 µM, 24 h
Description: After reaching optimal confluency, 4T1 cells were allowed to grow in the presence of 0.5 µM of C3 or DMEM only (control 4T1 cells) for next 24 h. According to manufacturer’s recommendation, cells were stained with Vybrant® DyeCycle^TM Ruby stain (Thermo Fisher Scientific, Waltham, MA, USA) in order to perform cell cycle analysis. The analysis was carried out on FACSCalibur Flow Cytometer (BD Biosciences, San Jose, CA, USA), and data were analyzed using FlowJo software (version 10.7.2; Tree Star Inc. Ashland, OR, USA).

[2] = tested on: mouse mesenchymal stem cells (mMSC); experiment: MTT assay mMSC; assay type: cell-based; settings: 48 h
Description: as §1, §2

BALB/C female mice = experiment: In vivo toxicity (serum biochemistry, liver and kidney histology); settings: day 30
Description: (§3) Ethics Committee of the Faculty of Medical Sciences of the University of Kragujevac, Serbia, approved all experiments (01-5301/11). ARRIVE guidelines and EU Directive 2010/63/EU for animal experiments were followed. Experimental animals, BALB/C female mice (8–10 weeks old), were housed under standard conditions (temperature-controlled environment, a 12 h light–dark cycle, fed ad libitum, and observed daily) throughout whole duration of experiment. Animals were inoculated with 4T1 cells (3 × 10^4) into the fourth mammary fat pad as previously described. Animals were randomly assigned to experimental or control groups, and after palpable tumors were detected, the pharmacological treatments were started. Female BALB/C mice intraperitoneally received either C3 (3 mg/kg), C3 (6 mg/kg), CDDP (6 mg/kg), or vehicle in distilled water with 0.05% DMSO (Sigma-Aldrich, St. Louis, MO, USA) (untreated group) in five single doses every third day (8 animals per group). Using electronic calipers (Moore and Wright, Sheffield, UK), the sizes of primary 4T1 mammary tumors were morphometrically evaluated. On the 30th day of experiment, animals were sacrificed, blood was collected (for determination of serum levels of ALT, AST, urea, and creatinine), and tissue sections (liver and kidney) were stained with H&E for further analysis. Liver or kidney sections were analyzed by two observers, and the injury levels were determined as previously reported.

4T1 mammary tumors = experiment: Breast cancer development in vivo (orthotopic 4T1); design: species or system BALB/C female mice; settings: five single doses every third day, after day 18
Description: as §3

mouse lung cancer (LLC1) = experiment: MTT assay LLC1; assay type: cell-based
Description: as §1, §2

4T1 cells [3] = experiment: Analysis of cell death (Annexin V/PI) in 4T1; assay type: cell-based, mouse; settings: 0.5 µM, 24 h, vs untreated
Description: 4T1 cells were treated with 0.5 µM of C3 or grown in DMEM only (control 4T1 cells) for 24 h and stained with Annexin-V-FITC and propidium iodide (PI) (BD Pharmingen, San Diego, CA, USA) as previously described. Quantification of cellular death was measured using FACSCalibur Flow Cytometer (BD Biosciences, San Jose, CA, USA) and FlowJo software (version 10.7.2; Tree Star Inc. Ashland, OR, USA).

4T1 cells [4] = experiment: Mitochondrial membrane potential and ROS levels; assay type: cell-based, mouse; settings: 0.5 µM
Description: After 24 h of C3 treatment, 4T1 cells were stained with appropriate dyes, followed by flow cytometry analysis using FACS Calibur Flow Cytometer (BD Biosciences, San Jose, CA, USA). Mitochondrial membrane potential stained by Rhodamine-123 (Sigma-Aldrich, St. Louis, MO, USA), TMRE (Abcam, Cambridge, UK), and cellular ROS levels were stained by DC-FHDA (Sigma-Aldrich, St. Louis, MO, USA).

CT-DNA = experiment: EB–CT-DNA fluorescence quenching; assay type: binding, calf; settings: EB–CT-DNA 8.52 × 10^−5 M, PBS pH 7.4
Description: All samples were prepared in phosphate-buffered saline (PBS, pH 7.4). Stern–Volmer Equation (2) was used to interpret the fluorescence quenching data.

[5] = tested on: human breast cancer (MDA-MB-468); experiment: MTT assay MDA-MB-468; assay type: cell-based
Description: as §1, §2

SMILES: CCCSc1ccccc1C(=O)[O][Ag].CCCSc1ccccc1C(=O)[O][Ag] [C3, [Ag2(S-propyl-thiosal)2]]
- IC50 (human lung cancer (A549); A549, 24 h): 55.8 ± 1.83 µM
- Selectivity Index (IC50 mMSC or MRC-5/ IC50 Cancer Cell) (human lung cancer (A549); A549, 24 h): 0.68
- IC50 (human lung cancer (A549); A549, 48 h): 66.3 ± 1.18 µM
- Selectivity Index (IC50 mMSC or MRC-5/ IC50 Cancer Cell) (human lung cancer (A549); A549, 48 h): 0.65
- percentage of 4T1 cells in G0/G1 phase (4T1 cells [1]): significantly increased
- percentage of 4T1 cells in S phase (4T1 cells [1]): decreased
- IC50 [2]: 4.22 ± 0.33 µM
- kidney injury scores compared to CDDP-treated animals (BALB/C female mice; C3 3 and 6 mg/kg vs CDDP 6 mg/kg): significantly lower
- liver injury histological score (Knodel score) vs untreated animals (BALB/C female mice; C3 3 and 6 mg/kg, H&E): did not reveal a significant difference
- tumor growth compared to the untreated group (4T1 mammary tumors; 3 mg/kg i.p.): significantly slower
- tumor growth compared to the untreated group (4T1 mammary tumors; 6 mg/kg i.p.): significantly slower
- IC50 (mouse lung cancer (LLC1); LLC1, 24 h): 41.6 ± 1.27 µM
- IC50 (mouse lung cancer (LLC1); LLC1, 48 h): 20.3 ± 1.18 µM
- Selectivity Index (IC50 mMSC or MRC-5/ IC50 Cancer Cell) (mouse lung cancer (LLC1); LLC1, 48 h): 0.21
- percentage of early apoptotic cells (4T1 cells [3]): No difference
- percentage of late apoptotic 4T1 cells (AnnV+/PI+) (4T1 cells [3]): increased
- TMRE fluorescence (mitochondrial membrane potential) (4T1 cells [4]): significant decrease
- level of intracellular ROS (4T1 cells [4]; 24 h incubation): increased
- Ksv EB (Stern–Volmer constant) (CT-DNA): (1.4 ± 0.1) × 10^4 M^−1
- IC50 ([5]; MDA-MB-468, 24 h): 15.5 ± 1.21 µM
- Selectivity Index (IC50 mMSC or MRC-5/ IC50 Cancer Cell) ([5]; MDA-MB-468, 24 h): 2.46
- IC50 ([5]; MDA-MB-468, 48 h): 8.76 ± 1.24 µM
- Selectivity Index (IC50 mMSC or MRC-5/ IC50 Cancer Cell) ([5]; MDA-MB-468, 48 h): 4.95
